Results from US20250230138A1, “COMPOUNDS HAVING A T-STRUCTURE FORMED BY AT LEAST FOUR CYCLES FOR USE IN THE TREATMENT OF CANCER AND OTHER INDICATIONS” (TheRas, Inc., priority 2022, published 2025).

Legend:
BT474 cell line = test: Cell viability in BT474 cell line; format: cell-based; conditions: Homo sapiens, BT-474
Excerpt: Table 8 compares the pAKT IC50 and cell viability for Compound 58, a PI3Kα breaker, and the PI3Kα inhibitor alpelisib in the breast cancer estrogen receptor positive (ER+) BT474 cell line, which harbors a HER2 amplification and PIK3CA linker domain K111N mutation. […] Importantly, the potency on pAKT translates well into a loss in cellular viability.

[1] = Serum insulin levels in fed mice; format: in vivo; conditions: fed male C57/BL6J mice, 240 minutes after one oral dose 50 mg/kg
Procedure: In the second study, serum insulin levels were measured in fed mice following administration of compounds to determine if Compound 58 induces hyperinsulinemia like the PI3Kα kinase domain inhibitor alpelisib (FIG. 3D). Approximately 5 μL of whole blood was collected via tail snip from male C57/BL6J mice and used to measure fed blood glucose levels using a glucometer. Mice were randomized into three groups (8 mice per group) based on blood glucose levels and then administered one oral dose of vehicle, 50 mg/kg alpelisib, or 300 mg/kg Compound 58. 240 minutes later, whole blood was collected and processed to serum and insulin levels were measured using an ELISA.

[2] = Blood glucose after an oral glucose tolerance test in fasted male mice (FIG. 3C); format: in vivo; conditions: single dose
Procedure: (§1) (One-way ANOVA with Dunnett's test vs. vehicle; *=p<0.01; **=p<0.0001). From left to right along x-axis in FIG. 3B: vehicle, 30 mg/kg BBO, 100 mg/kg BBO, 300 mg/kg BBO, 50 mg/kg alpelisib. […] (One-way ANOVA with Tukey's multiple comparisons test vs all other groups: *p<0.0001) (IV=intravenous administration; PO=per os or oral administration; ng/mL=nanograms per milliliters; mg/kg=milligrams per kilogram; mg/dL=milligrams per deciliter; min=minutes; CDX=cell line derived xenograft; QD=quaque die or once daily, PK=pharmacokinetics)

[3] = Phase III clinical trial; cited from earlier work
pAKT in BT474 cells = test: Cell-based pAKT HTRF assay in BT474 cells; conditions: Homo sapiens, BT-474; BT474 cell line; read-out: pAKT (IC50)
How it was run: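 Cells are seeded on day 1 and dosed on day 2 with a 9-point curve (3 μM top, 3-fold). After 4 hr they are lysed and the lysate is mixed with d2- and Eu Cryptate-labelled antibodies. HTRF is read after 4–24 h at room temperature.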

[4] = Insulin levels in fed male mice (FIG. 3D); format: in vivo; conditions: single oral dose 50 mg/kg, 240 minutes after administration
Procedure: as §1

[5] = Oral glucose tolerance test in fasted mice; format: in vivo; conditions: fasted male C57/BL6J mice, one oral dose 50 mg/kg, 2 g/kg glucose 1 h later, 15-120 minutes
Procedure: Two in vivo studies were performed to determine whether Compound 58 administration induces hyperglycemia and hyperinsulinemia in mice like the PI3Kα kinase domain inhibitor alpelisib (FIGS. 3C and 3D). In the first study, an oral glucose tolerance test was performed in fasted mice following the administration of compounds to determine if Compound 58 induces hyperglycemia (FIG. 3C). Male C57/BL6J mice were fasted overnight for 16 hours and approximately 5 μL of whole blood was collected via tail snip to measure fasted blood glucose levels using a glucometer. Mice were randomized into three groups (8 mice per group) based on blood glucose levels and then administered one oral dose of vehicle, 50 mg/kg alpelisib, or 300 mg/kg Compound 58. One hour later, blood was collected for a glucose measurement and then a single oral dose of a 2 g/kg glucose solution was administered. Blood glucose measurements were performed at 15, 30, 60, 90, and 120 minutes after the administration of the glucose solution.

[6] = test system: pAKT (Ser473) in BT474 CDX tumors; test: Pharmacodynamic activity (tumor pAKT) in BT474 cell line-derived xenograft model; format: in vivo, mice; conditions: NOD/SCID mice, 4 hours after one oral dose of 50 mg/kg
Procedure: An in vivo study was conducted to evaluate the pharmacodynamic activity of Compound 58 in the breast cancer estrogen receptor positive (ER+) BT474 cell line-derived xenograft (CDX) model, which harbors a HER2 amplification and PIK3CA linker domain K111N mutation (FIG. 3B). NOD/SCID mice were implanted subcutaneously with BT474 human tumor cells and were injected subcutaneously with estradiol benzoate twice a week to support tumor growth. When tumors reached a mean size of 286 mm^3, mice were randomized into treatment groups (4 mice per group) and administered one oral dose of vehicle, 30 mg/kg Compound 58, 100 mg/kg Compound 58, 300 mg/kg Compound 58, or 50 mg/kg alpelisib. Alpelisib is a PI3Kα kinase domain inhibitor and was included as a positive control. Whole blood and tumors were collected 4 hours post the dose. Blood was processed to plasma and compound concentrations were determined with LC-MS/MS. Tumors were processed into lysates and pAKT levels were measured using the Meso Scale Diagnostics (MSD) multi-spot pAKT (Ser473)/total AKT assay whole cell lysate kit.

**Q.** Which IC50 (BT474 cell line) does the source give for `Cc1nc(NC(=O)N2CCC[C@H]2C(N)=O)sc1-c1ccnc(C(C)(C)C(F)(F)F)c1` [alpelisib, reference compound] here?
**A.** 744 nM

**Q.** What about the Serum insulin levels [1] of the same compound?
**A.** significantly elevated

**Q.** And the “blood glucose levels (hyperglycemia)” value [2]?
**A.** Hyperglycemia is observed

**Q.** And the “patients in whom hyperglycemia was observed” value [3]?
**A.** 65%

**Q.** And the IC50 (pAKT in BT474 cells)?
**A.** 169 nM

**Q.** And the “insulin levels (hyperinsulinemia)” value [4]?
**A.** Hyperinsulinemia is observed

**Q.** What about the “Blood glucose levels after glucose dose (oral glucose tolerance test)” value [5] of the same compound?
**A.** significantly elevated

**Q.** And the pAKT inhibited [6]?
**A.** 97%
